Measured values taken from patent US20250213593A1, “Use of Derivatives based on Sarsasapogenin Structure and Pharmaceutical Compositions thereof” (BEIJING PHYTOVENT PHARMACEUTICAL TECHNOLOGY CO., LTD., priority 2022, published 2025).

Assays:
[1] = tested on: mice with ulcerative colitis induced by 3.0% DSS; assay: DSS mouse enteritis model; assay type: in vivo; conditions: 80 mpk oral gavage once a day, 9 days
Source text: 60 mice in good health were divided into 6 groups according to body weight, with 10 mice in each group: a normal control group, a model group, a positive drug group, and groups of different test products (Embodiment 13B, Embodiment 33, and Embodiment 34, at a dosage of 80 mpk each). In addition to the normal control group, the mice in other groups were administrated with a 3.0% DSS solution to drink freely, and consecutively modeled for 8 days. The normal control group was administrated with autoclaved filtered water to drink freely. The drug was administered on the day of modeling, and a test product was administered by oral gavage according to a designed dosage, once a day for 9 consecutive days. […] On the next day after the last administration, after deep anesthesia with CO2, cardiac blood and plasma were collected, and cryopreserved at −80° C. Subsequently, the abdominal cavity was dissected, the liver was removed and cryopreserved at −80° C. Finally, the entire colon tissue was removed, the colon length was measured, photographs were taken, and the colon content was washed with normal saline after dissection along the mesenteric side and weighed.

[2] = tested on: OCI-LY3 (human diffuse large B-cell lymphoma cells); assay: Cell proliferation assay, OCI-LY3; assay type: cell-based; conditions: Homo sapiens, OCI-Ly3, 72 h
Protocol: (§1) • Experimental and analytical method: cells were inoculated into a 96-well cell culture plate with a lid at a maximum concentration of 10 μM for a test compound, and diluted in three folds to a series of test concentrations, and cells were incubated at 37° C., 5% CO2 for 72 h. The concentration of DMSO was 0.5%, 100 μl of medium was taken from each well. 100 μl of reagent (Celltitute Glo Assay Kit) was added to each well, and a flat plate was shaken on a plate shaker (protected from light) for 2 min. A culture plate was incubated (protected from light) at room temperature for 30 min. Chemiluminescence values were recorded by a multi-plate plate reader, and the experimental results were as follows:
(§2) U937 (histiocytic lymphoma cells), OCI-LY3 (human diffuse large B-cell lymphoma cells), U2932 (human diffuse large B-cell lymphoma cells), and HT cells (human mixed lymphoma cells) were analyzed in the table for experimental analysis of cell proliferation.

[3] = tested on: U2932 (human diffuse large B-cell lymphoma cells); assay: Cell proliferation assay, U2932; assay type: cell-based; conditions: U2932, 72 h
Protocol: as §1, §2

[4] = tested on: C57BL/6 mice modeled with MPTP; assay: PD mouse model (MPTP); assay type: in vivo; conditions: 80 mpk, 15 days; vs model group, T-test
Protocol: • Experimental and analytical method: mice of C57BL/6 strain were used in this experiment, which were divided into 5 groups, including a normal control group (no injection of MPTP), a model group (modeling with MPTP), and treatment groups of three small molecules (Embodiment 13B, Embodiment 25A, and Embodiment 25B). The drug was administered at the same time as modeling was made. The modeling lasted for 5 days, followed by 30 mpk intraperitoneal injection till lasting for 15 days, and lasted for 15 days at 80 mpk. At the endpoint, the brain was soaked and fixed in PFA after cardiac perfusion, and transferred to sucrose dehydration after complete fixation, and OCT embedding and sectioning were used for TH staining after complete dehydration. The detection indicator was the number of TH-positive cells in the substantia nigra. The more positive cells, the better the protection effect of small molecules against MPTP damage. • Results: there were 12 mice in each group, and the statistical results were shown in FIG. 50, T-test, **: p<0.01, #: p<0.05.

[5] = tested on: SARS-CoV-2 pseudovirus (HEK293T cells); assay type: cell-based
[6] = tested on: male SD rats, TBI model; assay: Acute traumatic brain injury (TBI) rat model; assay type: in vivo; conditions: 80 mpk once a day, 7 days; vs solvent control (P<0.05)
Protocol: • Experimental and analytical method: male SD rats were used in this experiment to establish a TBI rat model, which was randomly divided into: a solvent control group (8 rats), a test product Embodiment 13B (80 mpk, 10 rats), and a test product Embodiment 26 (80 mpk, 9 rats). After TBI surgery, drugs were administered by gavage once a day for 7 consecutive days.

[7] = tested on: transgenic AD rat model (human APP mutant protein, SD rats); assay: Water maze test of AD rats; conditions: administered from 7 to 13 months of age; vs model group
[8] = tested on: SOD^G93A transgenic mice; assay: Gait analysis of SOD^G93A mice; conditions: 40 mpk from Day 60, tested at Week 19; vs model group
Source text: Gait analysis was a behavioral analysis method that tested motor dysfunction. The mice with motor dysfunction would have a significant reduction in stride length. Our experiments were divided into two groups, i.e., a model group and an administration group.

[9] = tested on: SOD^G93A transgenic mice; assay: Open field test of SOD^G93A mice; conditions: 40 mpk from Day 60, Week 14 to Week 19; vs model group
Protocol: A mean moving speed was calculated in an open field, which is a behavioral analysis method to test motor dysfunction. The mice with motor dysfunction would have a significant reduction in mean moving speed. Our experiments were divided into three groups, i.e., a WT group, a model group and an administration group.

C[C@H]1CC[C@@]2(OC1)O[C@H]1C[C@@H]3[C@H](CC[C@H]4[C@H]3CC[C@@H]3C[C@H](NC(=O)CC(=O)N5CCN(CCN(C)C)CC5)CC[C@@]34C)[C@H]1[C@@H]2C [Embodiment 13b]
colon length [1]: could increase the weights and lengths of the colons
colon weight [1]: could increase the weights and lengths of the colons
general conditions of DSS colitis mice [1]: certain improvement effects
IC50 [2]: 4.39 µM
IC50 [3]: 0.72 µM
number of TH-positive cells in the substantia nigra [4]: statistically significant differences
mitochondrial fragmentation after pseudovirus infection [5]: not fragmented
early brain apoptosis rates [6]: significantly lower
total apoptosis rates [6]: significantly lower
average distance from the platform [7]: improved behavioral performances
dwell time in the target quadrant [7]: improved behavioral performances
number of platform shuttles [7]: improved behavioral performances
stride length [8]: much larger
mean moving rate in open field [9]: much larger
